Data set [1] deals with panel of human tumor cell lines (A431, MCF-7, A375, HCT-15, SW480, CaCo-2, DLD-1). In words: MTT cytotoxicity, comparison over the Table 1 panel. It is filed as cell-based. The note with it: average over seven cell lines of Table 1. The method, then: (§1) After 24 h, the medium was removed and replaced with a fresh one containing the compound to be studied, at the appropriate concentration, dissolved in 0.9% sodium chloride solution just before use. Triplicate cultures were established for each treatment. After 72 h, each well was treated with […] of a 5 mg mL^−1 MTT saline solution and, after 5 h of incubation, 100 μL of a sodium dodecylsulfate (SDS) solution in 0.01 M HCl were added. After an overnight incubation, the inhibition of cell growth induced by the tested complexes was determined by measuring the absorbance of each well at 570 nm using a BioRad 680 microplate reader. Mean absorbance for each drug dose was expressed as percentage of the control and plotted vs. drug concentration. Dose-response curves were fitted and IC50 values were calculated with four parameter logistic model (4PL).
The cytotoxicity was evaluated by means of the MTT test for 72 h treatment with increasing concentrations of the tested compounds.

The subject of data set [2] is 2008/C13*, LoVo/LoVo-OXP, LoVo MDR. In words: MTT cytotoxicity, comparison over the Table 2 cell lines. It is filed as cell-based, human. Particulars: 2008 ovarian and LoVo colon sensitive cells. The protocol:
as §1
(§2) A LoVo cell line retaining a multidrug resistance phenotype was also considered (LoVo MDR). Cross-resistance profiles were evaluated by means of the resistance factor (RF), which is defined as the ratio between the IC50 value for the resistant cells and that arising from the sensitive cells (Table 2).

For data set [3], the system named is A375. In words: MTT cytotoxicity assay, 72 h. It is filed as cell-based, human. Particulars: A375, skin.
From the text: (§3) Human breast (MCF-7) and colon (HCT-15, DDL1, SW480 and CaCo-2) carcinoma cell lines along with melanoma (A375) were obtained from the American Type Culture Collection (ATCC, Rockville, Md.). A431 are human cervical carcinoma cells kindly provided by Prof. F. Zunino (Molecular Pharmacology Unit, Experimental Oncology and Molecular Medicine, Istituto Nazionale dei Tumori, Milan, Italy). […] G. Marverti (Dept. of Biomedical Science, University of Modena, Italy). LoVo human colon-carcinoma cell line and its multidrug-resistant sublime (LoVo MDR) were kindly provided by Prof F. Maj one (Department of Biology of Padova University, Italy). […] Cell lines were maintained in the logarithmic phase at 37° C. in a 5% carbon dioxide atmosphere using the following culture media containing 10% fetal calf serum (Euroclone, Milan, Italy), antibiotics (50 units mL^−1 penicillin and 50 μg mL^−1 streptomycin), and 2 mM L-glutamine in: i) RPMI-1640 medium (Euroclone) for MCF-7, HCT-15, A431, DLD 1, 2008, and C13* cells; ii) F-12 HAM'S (Sigma Chemical Co.) for LoVo, LoVo MDR, and LoVo-OXP cells; iii) DMEM for A375 and SW 480 cells; and iv) MEM for CaCo-2 cells.
(§4) The growth inhibitory effect towards tumor cell lines was evaluated by means of the MTT (3-(4,5-dimethylthiazol-2-yl)-2,5-diphenyltetrazolium bromide) assay (Alley, M. C., et al., Cancer Res. 1988, 48, 589-601).
as §1, with “Briefly, depending upon the growth characteristics of the cell line, 3-8×10^3 cells well^−1, were seeded in 96-well microplates in growth medium (100 μL) and then incubated at 37° C. in a 5% carbon dioxide atmosphere. After 24” for “After 24”
(§5) Compound 1 was prepared for the first time almost twenty years ago however, until now, it had been tested (both in vitro and in vivo) only in a limited number of tumor cell lines (Hoeschele, J. D., et al., J. Med. Chem. 1994, 37, 2630-2636 and Shamsuddin, S., et al., J. Inorg. Biochem. 1996, 61, 291-301). The Pt(II) and Pt(IV) complexes containing isomeric forms of diaminocyclohexane, [PtCl2(cis-1,4-DACHA](1), [PtCl2(1R,2R-DACH)] (2), [Pt(OXA)(cis-1,4-DACH)] (3), cis,trans,cis-[Pt^IVCl2(OH)2(cis-1,4-DACH)] (4), cis,trans,cis-[Pt^IVCl2(DCA)2(cis-1,4-DACH)] (5), [Pt(CBDCA)(cis-1,4-DACH)] (6), cis,trans,cis-[Pt^IV(OXA)(OH)2(cis-1,4-DACH)] (7), and cis,trans,cis-[Pt^IV(OXA)(DCA)2(cis-1,4-DACH)] (8) were evaluated for their cytotoxic activity towards a panel of human tumor cell lines including cervical (A431), breast (MCF-7), cancers along with a melanoma (A375) and 4 different colon cancer cell lines corresponding to different stages of the disease progression (HCT-15, SW480, CaCo-2, DLD-1). The cytotoxicity was evaluated by means of the MTT test for 72 h treatment with increasing concentrations of the tested compounds.
(Tetrazolium assays rely on reduction of a dye to a coloured formazan, in cell work by metabolically active cells.)

Data set [4] relates to A431. In words: MTT cytotoxicity assay, 72 h. The data set is classed as cell-based, human. Particulars: A431, cervix.
From the text: as §3, §4
as §1, with “Briefly, depending upon the growth characteristics of the cell line, 3-8×10^3 cells well^−1, were seeded in 96-well microplates in growth medium (100 μL) and then incubated at 37° C. in a 5% carbon dioxide atmosphere. After 24” for “After 24”
as §5

For data set [5], the system named is DLD-1. In words: MTT cytotoxicity assay, 72 h. The data set is classed as cell-based, human. Particulars: DLD-1, colon.
From the text: as §3, §4
as §1, with “Briefly, depending upon the growth characteristics of the cell line, 3-8×10^3 cells well^−1, were seeded in 96-well microplates in growth medium (100 μL) and then incubated at 37° C. in a 5% carbon dioxide atmosphere. After 24” for “After 24”
as §5

In data set [6] the test system is HCT-15. In words: MTT cytotoxicity assay, 72 h. The data set is classed as cell-based, human. Particulars: HCT-15, colon.
From the text: as §3, §4
as §1, with “Briefly, depending upon the growth characteristics of the cell line, 3-8×10^3 cells well^−1, were seeded in 96-well microplates in growth medium (100 μL) and then incubated at 37° C. in a 5% carbon dioxide atmosphere. After 24” for “After 24”
as §5

Data set [7] relates to MCF-7. Kind of data set: MTT cytotoxicity assay, 72 h. It is filed as cell-based, human. The note with it: MCF-7, breast.
From the text: as §3, §4
as §1, with “Briefly, depending upon the growth characteristics of the cell line, 3-8×10^3 cells well^−1, were seeded in 96-well microplates in growth medium (100 μL) and then incubated at 37° C. in a 5% carbon dioxide atmosphere. After 24” for “After 24”
as §5

For data set [8], the system named is SW480. In words: MTT cytotoxicity assay, 72 h. It is filed as cell-based, human. Particulars: SW480, colon.
From the text: as §3, §4
as §1, with “Briefly, depending upon the growth characteristics of the cell line, 3-8×10^3 cells well^−1, were seeded in 96-well microplates in growth medium (100 μL) and then incubated at 37° C. in a 5% carbon dioxide atmosphere. After 24” for “After 24”
as §5

In data set [9] the test system is LoVo colon cancer cells. In words: MTT cytotoxicity assay, cross-resistance profile. It is filed as cell-based, human. The note with it: 72 h.
From the text: Human breast (MCF-7) and colon (HCT-15, DDL1, SW480 and CaCo-2) carcinoma cell lines along with melanoma (A375) were obtained from the American Type Culture Collection (ATCC, Rockville, Md.). A431 are human cervical carcinoma cells kindly provided by Prof. F. Zunino (Molecular Pharmacology Unit, Experimental Oncology and Molecular Medicine, Istituto Nazionale dei Tumori, Milan, Italy). […] G. Marverti (Dept. of Biomedical Science, University of Modena, Italy). LoVo human colon-carcinoma cell line and its multidrug-resistant sublime (LoVo MDR) were kindly provided by Prof F. Maj one (Department of Biology of Padova University, Italy).
as §4
as §1, with “Briefly, depending upon the growth characteristics of the cell line, 3-8×10^3 cells well^−1, were seeded in 96-well microplates in growth medium (100 μL) and then incubated at 37° C. in a 5% carbon dioxide atmosphere. After 24” for “After 24”
as §2

In data set [10] the test system is 2008 ovarian cancer cells. In words: MTT cytotoxicity assay, cross-resistance profile. The note with it: 72 h. The data set is classed as cell-based, human.
From the text: as §3, §4
as §1, with “Briefly, depending upon the growth characteristics of the cell line, 3-8×10^3 cells well^−1, were seeded in 96-well microplates in growth medium (100 μL) and then incubated at 37° C. in a 5% carbon dioxide atmosphere. After 24” for “After 24”
as §2

Data set [11] concerns C13* cisplatin resistant ovarian cancer cells. In words: MTT cytotoxicity assay, cross-resistance profile. It is filed as cell-based, human. Particulars: for IC50: C13*, 72 h, MTT; for R.F. (resistance factor): IC50 C13* / IC50 2008, cross-resistance with cisplatin.
From the text: as §3, §4
as §1, with “Briefly, depending upon the growth characteristics of the cell line, 3-8×10^3 cells well^−1, were seeded in 96-well microplates in growth medium (100 μL) and then incubated at 37° C. in a 5% carbon dioxide atmosphere. After 24” for “After 24”
as §2

The test system of data set [12] is LoVo-OXP oxaliplatin resistant colon cancer cells. In words: MTT cytotoxicity assay, cross-resistance profile. The data set is classed as cell-based, human. The note with it: for R.F. (resistance factor): IC50 LoVo-OXP / IC50 LoVo, cross-resistance with oxaliplatin; for IC50: LoVo-OXP, 72 h, MTT.
From the text: as §3, §4
as §1, with “Briefly, depending upon the growth characteristics of the cell line, 3-8×10^3 cells well^−1, were seeded in 96-well microplates in growth medium (100 μL) and then incubated at 37° C. in a 5% carbon dioxide atmosphere. After 24” for “After 24”
as §2

The test system of data set [13] is LoVo MDR multidrug resistant colon carcinoma subline. Kind of data set: MTT cytotoxicity assay, cross-resistance profile. It is filed as cell-based, human. Particulars: for R.F. (resistance factor): IC50 LoVo-MDR / IC50 LoVo; for IC50: LoVo-MDR, 72 h, MTT.
From the text: as §3, §4
as §1, with “Briefly, depending upon the growth characteristics of the cell line, 3-8×10^3 cells well^−1, were seeded in 96-well microplates in growth medium (100 μL) and then incubated at 37° C. in a 5% carbon dioxide atmosphere. After 24” for “After 24”
as §2
In Table 2 are also reported the results obtained in a multidrug resistant (MDR) colon carcinoma subline, LoVo MDR, in which the resistance to doxorubicin, a drug belonging to the MDR spectrum, is associated with an overexpression of multi-specific drug transporters, such as the 170 kDa P-glycoprotein (P-gp) (Wersinger, C., et al., Amino Acids 2000, 19, 667-685). It is well known that acquired MDR, whereby cells become refractory to multiple drugs, poses most important challenge to the success of anticancer chemotherapy.

As for `O=C1[O][Pt]2([NH][C@H]3CC[C@H](CC3)[NH]2)[O]C1=O` [Compound 3, [SP-4-2-(cis)]-(1,4,cyclohexanediamine-N,N′)[ethanedioato(2)-O,O^1]platinum], the “average cytotoxic activity compared with reference drugs” value in data set [1] is “lower than that of oxaliplatin and comparable to that of compound 2 and cisplatin”. Moreover, the “cytotoxic activity towards sensitive lines compared with reference drugs” value in data set [2] was “less effective than oxaliplatin and cisplatin towards ovarian sensitive cell line and rather similar to cisplatin against LoVo colon cancer cells”.
Regarding `O=C([O][Pt]1([Cl])([Cl])([O]C(=O)C(Cl)Cl)[NH][C@H]2CC[C@H](CC2)[NH]1)C(Cl)Cl` [Compound 5, (OC-6-33)-dichloro(cis-1,4-cyclohexanediamine-N,N′)bisdichloroacetateplatinum], the “average cytotoxic activity compared with reference drugs” value in data set [1] is recorded as “rather similar to oxaliplatin”. The “cytotoxic activity towards sensitive lines compared with reference drugs” value in [2] is “better than cisplatin and similar to oxaliplatin”.
For `O=C1[O][Pt]2([NH]C3CCC(CC3)[NH]2)[O]C(=O)C12CCC2` [Compound 6, [SP-4-2-(cis)]-(1,4-cyclohexanediamine-N,N′)[cyclobutane-1,1-dicarboxylate-O,O′]platinum], in data set [1], the “average cytotoxic activity compared with reference drugs” value is “lower than oxaliplatin and cisplatin”. Further, the “cytotoxic activity towards sensitive lines compared with reference drugs” value in data set [2] is “less effective than oxaliplatin and cisplatin”.
A word on the IC50: it is the concentration needed to halve the response being measured. Read a high IC50 as a need for much substance. With `O=C1[O][Pt]2([OH])([OH])([NH]C3CCC(CC3)[NH]2)[O]C1=O` [Compound 7, (OC-6-33)-[ethanedioato(2)-O,O′](cis-1,4-cyclohexanediamine-N,N′)dihydroxyplatinum], the IC50 in [3] worked out at 75.1 ± 6.54 µM; in [4] it was 59.5 ± 3.64 µM; in data set [5], 82.2 ± 5.54 µM; in data set [6], 72.1 ± 4.74 µM; in data set [7] it was 112 ± 9.52 µM; in [8], 69.4 ± 11.5 µM. Besides, the half-maximal inhibitory concentration (IC50) in data set [9] was found to be 61.2 ± 5.51 µM; in data set [10], 59.5 ± 3.64 µM; in data set [11] it was 78.7 ± 4.6 µM; in data set [12] it was 66.9 ± 5.12 µM; in [13], 69.4 ± 4.83 µM. In addition, the “R.F. (resistance factor)” value was determined as 1.3 in data set [11], 1.1 in data set [12] and 1.1 in data set [13]. Moreover, in data set [2], the “cytotoxic activity towards sensitive lines compared with reference drugs” value was “less effective than oxaliplatin and cisplatin”.
For the compound `O=C1[O][Pt]2([O]C(=O)C(Cl)Cl)([O]C(=O)C(Cl)Cl)([NH]C3CCC(CC3)[NH]2)[O]C1=O` [Compound 8, (OC-6-33)-[ethanedioato(2)-O,O′](cis-1,4-cyclohexanediamine-N,N′)bisdichloroacetateplatinum], the IC50 in [3] was 4.99 ± 1.15 µM; in data set [4] it was 7.41 ± 2.11 µM; in data set [5], 8.26 ± 3.24 µM; in data set [6], 13.7 ± 3.81 µM; in [7], 12.6 ± 2.47 µM; in data set [8], 10.6 ± 2.01 µM. For the same compound, the concentration for half-maximal inhibition (IC50) was 9.08 ± 2.16 µM in [9]; 11.1 ± 3.28 µM in data set [10]; 9.12 ± 2.79 µM in data set [11]; 11.1 ± 3.05 µM in data set [12]; 11.9 ± 3.33 µM in data set [13]. Further, the “R.F. (resistance factor)” value in data set [11] is on record as 0.8; in data set [12], 1.2; in data set [13], 1.3. For the same compound, the “cytotoxic activity towards sensitive lines compared with reference drugs” value in [2] was “lower than cisplatin and oxaliplatin in ovarian sensitive cancer cells, similar than cisplatin against colon sensitive cells”.

Source of the values: patent US9220705B2, “Method of treating colorectal cancer” (priority 2013, dated 2015).
